Experimental data taken from US6455587B1 (priority 2000, dated 2002).
Read-outs that look alike come from different tables or passages of the source.

Target: T1, recombinant HIV-1 protease (Human immunodeficiency virus type 1 group M subtype B, UniProt P04585)
T1 construct: recombinant HIV-1 protease (final concentration 2.18 nM) purchased from Bachem Bioscience; purchased Bachem Bioscience
Experiment: Enzymatic fluorometric (FRET) assay for determining the inhibition constant (Ki) against HIV protease
Type: biochemical
Excerpt: An Enzymatic assay for determining the inhibition constant (Ki) of synthetic compounds targeting the HIV protease may be carried out as follows: This is a fluorometric assay based on the cleavage by protease of a substrate carrying a donor group (EDANS) and an acceptor group (DABCYL) on each side of the cleavage site, interacting together through fluorescence resonance energy transfer (FRET). Cleavage of the substrate by protease stops energy exchange between the two groups, resulting in a time-dependent increase in fluorescence intensity that is linearly related to the extent of substrate hydrolysis.
The enzymatic assay is done at 31° C. in white 96-well fluorescence microplates, in a total volume of 200 μL per well. The apparatus used for analysis is a FL600 fluorescence microplate reader (Biotek Instruments). […] Excitation of the fluorophore is done at 340 nm and emission at 485 nm is recorded continuously during the reaction, allowing determination of the enzyme's initial velocity (v0). At the end of the 4 min incubation, the potential inhibitor at a defined concentration in a volume of 4 μL is added to the reaction, and fluorescence readings are taken for another 4 min, allowing determination of enzyme velocity (vi) in the presence of the inhibitory compound. Several concentrations of the putative inhibitors are tested in the assay. After calculation of v0 and vi, the inhibition constant (Ki) of the compound is determined using the equation of Henderson: [formula]
and [I]=inhibitor concentration, [S]=substrate concentration,
Km=Michaelis-Menten constant, Kiapp=apparent Ki
Graphs are traced and the Ki determined using GraphPad Prism software v. 3.0.

[1] = fluorometric FRET assay, 31° C., pH 4.7, recombinant HIV-1 protease 2.18 nM, substrate 10 μM, read-out: Ki
[2] = fluorometric FRET assay, recombinant HIV-1 protease, pH 4.7, 31° C., read-out: Ki

Molecule | Ki [2] | other results
CC(C)CN([C@@H](CCCCNC(=O)CCc1ccc(N)cc1)C(=O)O)S(=O)(=O)c1ccc(N)cc1 [Compound 194, Nα-Isobutyl-Nα-(4-aminobenzenesulfonyl)-Nε-(4-aminodihydrocinnamoyl)-L-lysine] |  | Ki [1]: > 300 nM
CC(C)CN([C@@H](CCCCNC(=O)CCc1cccc(N)c1)C(=O)O)S(=O)(=O)c1ccc(N)cc1 [Compound 118, Nα-Isobutyl-Nα-(4-aminobenzenesulfonyl)-Nε-(3-aminodihydrocinnamoyl)-L-lysine] | 20.5 nM | 
Cc1ccc(S(=O)(=O)N(CC(C)C)[C@@H](CCCCNC(=O)CCc2ccc(O)cc2)C(=O)O)cc1 [Compound 126, Nα-Isobutyl-Nα-(4-methylbenzenesulfonyl)-Nε-(4-hydroxydihydrocinnamoyl)-L-lysine] | > 300 nM | 
O=C(NCCCC[C@H](NS(=O)(=O)c1ccc([N+](=O)[O-])cc1)C(=O)O)OCC1c2ccccc2-c2ccccc21 [Compound 103, Nα-(4-Nitrobenzenesulfonyl)-Nε-(9-fluorenylmethoxycarbonyl)-L-lysine] | 3300 nM | 
CC(C)CN(C(=O)c1ccccc1)[C@@H](CCCCNC(=O)OCC1c2ccccc2-c2ccccc21)C(=O)O [Compound 46, Nα-Isobutyl-Nα-benzoyl-Nε-(9-fluorenylmethoxycarbonyl)-L-lysine] | > 100 nM | 
Cc1ccc(S(=O)(=O)N(CC(C)C)[C@@H](CCCCNC(=O)OCC2c3ccccc3-c3ccccc32)C(=O)O)cc1 [Compound 67, Nα-Isobutyl-Nα-(4-methylbenzenesulfonyl)-Nε-(9-fluorenylmethoxycarbonyl)-L-lysine] |  | Ki (Ki (nM)): 4.3 nM
CC(C)CN([C@@H](CCCCNC(=O)OCC1c2ccccc2-c2ccccc21)C(=O)O)S(=O)(=O)c1ccc(Br)cc1 [Compound 4, Nα-Isobutyl-Nα-(4-bromobenzenesulfonyl)-Nε-(9-fluorenylmethoxycarbonyl)-L-lysine] | 11.4 nM | 
CC(C)(C)OC(=O)N[C@@H](CCCCNS(=O)(=O)c1ccc(Br)cc1)C(=O)O [Compound 143] | 660000 nM | 
Cc1ccc(S(=O)(=O)N(CC(C)C)[C@@H](CCCCNC(=O)c2c[nH]c3ccccc23)C(=O)O)cc1 [Compound 87] | > 1250 nM | 
COc1ccc(OC)c(C=CC(=O)NCCCC[C@@H](C(=O)O)N(CC(C)C)S(=O)(=O)c2ccc([N+](=O)[O-])cc2)c1 [Compound 190, Nα-Isobutyl-Nα-(4-nitrobenzenesulfonyl)-Nε-(2,5-dimethoxycinnamoyl)-L-lysine] | > 75 nM | 
CC(C)CN([C@@H](CCCCNC(=O)OCC1c2ccccc2-c2ccccc21)C(=O)O)S(=O)(=O)c1ccc(C(C)(C)C)cc1 [Compound 10, Nα-Isobutyl-Nα-(4-tert-butylbenzenesulfonyl)-Nε-(9-fluorenylmethoxycarbonyl)-L-lysine] |  | Ki (Ki (nM)): 257 nM
COc1cccc(CCC(=O)NCCCC[C@@H](C(=O)O)N(CC(C)C)S(=O)(=O)c2ccc(N)cc2)c1OC [Compound 119, Nα-Isobutyl-Nα-(4-aminobenzenesulfonyl)-Nε-(2,3-dimethoxydihydrocinnamoyl)-L-lysine] | 6.2 nM | 
Cc1ccc(S(=O)(=O)N(CC(C)C)C(CCCCNC(=O)OCC2c3ccccc3-c3ccccc32)C(=O)O)cc1 (racemic) [Compound 2, Nα-Isobutyl-Nα-(4-methylbenzenesulfonyl)-Nε-(9-fluorenylmethoxycarbonyl)-DL-lysine] |  | Ki (Ki (nM)): 5 nM
Cc1cc(C)c(S(=O)(=O)NCCCC[C@H](NC(=O)OCC2c3ccccc3-c3ccccc32)C(=O)O)c(C)c1 [Compound 27, Nε-(2,4,6-Trimethylbenzenesulfonyl)-Nα-(9-fluorenylmethoxycarbonyl)-L-lysine] | > 50000 nM | 
Cc1ccc(S(=O)(=O)N(CC(C)C)[C@@H](CCCCNC(=O)C(c2ccccc2)c2ccccc2)C(=O)O)cc1 [Compound 86] | 171 nM | 
O=C(O)[C@H](CCCCNS(=O)(=O)c1ccc(Br)cc1)NS(=O)(=O)c1ccc(Br)cc1 [Compound 17, Nα,Nε-di-(4-Bromobenzenesulfonyl)-L-lysine] | 7700 nM | 
CC(C)CN(CCCC[C@H](NC(=O)OCC1c2ccccc2-c2ccccc21)C(=O)O)S(=O)(=O)c1ccc(Br)cc1 [Compound 21, Nα-(9-Fluorenylmethoxycarbonyl)-Nε-isobutyl-Nε-(4-bromobenzenesulfonyl)-L-lysine] | 2000 nM | 
O=C(N[C@@H](CCCCNS(=O)(=O)Cc1ccccc1)C(=O)O)OCC1c2ccccc2-c2ccccc21 [Compound 33, Nε-Phenylmethylsulfonyl-Nα-(9-fluorenylmethoxycarbonyl)-L-lysine] | 20000 nM | 
CC(C)CN([C@@H](CCCCNC(=O)CCc1cccnc1)C(=O)O)S(=O)(=O)c1ccc(N)cc1 [Compound 195, Nα-Isobutyl-Nα-(4-aminobenzenesulfonyl)-Nε-[3-(3-pyridyl)propionyl]-L-lysine] |  | Ki [1]: > 300 nM

Molecule | Ki [2] | other results
O=C(N[C@H](CO)CCCCNS(=O)(=O)c1ccc(Br)cc1)OCC1c2ccccc2-c2ccccc21 [Compound 22, (2S)-(9-Fluorenylmethoxycarbonylamino)-6-(4-bromobenzenesulfonylamino)-1-hexanol] | > 6000 nM | 
Nα-(4-Bromobenzenesulfonyl)-Nε-(9-fluorenylmethoxycarbonyl)-L-lysine [Compound 66] | > 6500 nM | 
CC(C)CN([C@@H](CCCCNC(=O)/C=C/c1cccnc1)C(=O)O)S(=O)(=O)c1ccc([N+](=O)[O-])cc1 [Compound 164, Nα-Isobutyl-Nα-(4-nitrobenzenesulfonyl)-Nε-(trans-3-(3-pyridyl)acryloyl)-L-lysine] | > 300 nM | 
COc1ccc(S(=O)(=O)N[C@@H](CCCCNC(=O)OCC2c3ccccc3-c3ccccc32)C(=O)O)cc1 [Compound 104, Nα-(4-Methoxylbenzenesulfonyl)-Nε-(9-fluorenylmethoxycarbonyl)-L-lysine] | 3160 nM | 
O=C(Cc1c[nH]c2ccccc12)N[C@@H](CCCCNS(=O)(=O)c1ccc(Br)cc1)C(=O)O [Compound 29, Nα-(3-Indoleacetyl)-Nε-(4-bromobenzenesulfonyl)-L-lysine] | 10500 nM | 
COc1cccc(CCC(=O)NCCCC[C@@H](C(=O)O)N(CC(C)C)S(=O)(=O)c2ccc(C)cc2)c1OC [Compound 201, Nα-Isobutyl-Nα-(4-methylbenzenesulfonyl)-Nε-(2,3-dimethoxydihydrocinnamoyl)-L-lysine] |  | Ki [1]: 15 nM
Nα-Isobutyl-Nα-(4-methylbenzenesulfonyl)-Nε-(9-fluorenylmethoxycarbonyl)-L-lysine Methyl Ester [Compound 123] | > 1250 nM | 
CC(C)CN([C@@H](CCCCNC(=O)C=Cc1ccc([N+](=O)[O-])cc1)C(=O)O)S(=O)(=O)c1ccc([N+](=O)[O-])cc1 [Compound 111, Nα-Isobutyl-Nα-(4-nitrobenzenesulfonyl)-Nε-(4-nitrocinnamoyl)-L-lysine] |  | Ki (Ki (nM), fluorometric FRET assay, recombinant HIV-1 protease, pH 4.7, 31° C.): 34.4 nM
CC(C)CN(C(CCCCNC(=O)OCC1c2ccccc2-c2ccccc21)C(=O)O)S(=O)(=O)c1ccc(Cl)cc1 (racemic) [Compound 1, Nα-Isobutyl-Nα-(4-chlorobenzenesulfonyl)-Nε-(9-fluorenylmethoxycarbonyl)-DL-lysine] | 20.5 nM | 
CC(C)CN([C@@H](CCCCNC(=O)COc1ccccc1)C(=O)O)S(=O)(=O)c1ccc(N)cc1 [Compound 192, Nα-Isobutyl-Nα-(4-aminobenzenesulfonyl)-Nε-phenoxyacetyl-L-lysine] |  | Ki [1]: 8.2 nM
Cc1ccc(S(=O)(=O)N(CC(C)C)[C@@H](CO)CCCCNC(=O)OCC2c3ccccc3-c3ccccc32)cc1 [Compound 124, (2R)-N-Isobutyl-N-(4-methylbenzenesulfonylamino)-6-(9-fluorenylmethoxycarboxylamino)-1-hexanol] | 208 nM | 
Nc1ccc(S(=O)(=O)NCCC[C@H](NC(=O)OCC2c3ccccc3-c3ccccc32)C(=O)O)cc1 [Compound 69, Nδ-(4-Aminobenzenesulfonyl)-Nα-(9-fluorenylmethoxycarbonyl)-L-ornithine] | 23800 nM | 
Nα-Isobutyl-Nα-(4-nitrobenzenesulfonyl)-Nε-phenylthioacetyl-L-lysine [Compound 154] | 10.2 nM | 
O=C(NCCC[C@H](NC(=O)OCC1c2ccccc2-c2ccccc21)C(=O)O)OCC1c2ccccc2-c2ccccc21 [Compound 73, Nα,Nδ-di-(9-Fluorenylmethoxycarbonyl)-L-ornithine] | 1300 nM | 
CC(C)CN([C@@H](CCCCNC(=O)OCc1ccccc1)C(=O)OCc1ccccc1)S(=O)(=O)c1ccc([N+](=O)[O-])cc1 [Compound 78, Nα-Isobutyl-Nα-(4-nitrobenzenesulfonyl)-Nε-benzyloxycarbonyl-L-lysine Benzyl Ester] | > 1250 nM | 
O=C(N[C@@H](CCNS(=O)(=O)c1ccc(Br)cc1)C(=O)O)OCC1c2ccccc2-c2ccccc21 [Compound 14, (S)-2-(9-Fluorenylmethoxycarbonylamino)-4-(4-bromobenzenesulfonylamino)-butanoic Acid] | 49000 nM | 
Cc1ccc(S(=O)(=O)N(CC(C)C)C(CCCCNC(=O)c2cc3ccccc3[nH]2)C(=O)O)cc1 (stereo not shown) [Compound 88] | > 625 nM | 
CC(C)(C)OC(=O)N[C@@H](CCCNC(=O)OCc1ccccc1)C(=O)O [Compound 137] | > 200000 nM | 
